Patent publication US20240189221A1, “METHODS AND FORMULATIONS FOR TREATING VASCULAR DISEASE” (ENDOPERFUSION SOLUTIONS, LLC, priority 2015, published 2024)

Test system: Human artery smooth muscle cells
Test: Smooth muscle cell proliferation (cell count by flow cytometry)
Assay type: cell-based
Details: 0.01-1 μM, 48 h; FIG. 6, FIG. 7A
Experimental: Human artery smooth muscle cells were seeded at 20,000 cells per well on 24-well plates (3 wells per condition) in growth medium and allowed to adhere overnight at 37° C. […] Cells were washed with PBS, trypsinized, and counted using a flow cytometer (Beckman-Coulter FC500).

## COCc1c(C(C)C)nc(C(C)C)c(/C=C/[C@@H](O)C[C@@H](O)CC(=O)O)c1-c1ccc(F)cc1 [free cerivastatin, (3R,5S,6E)-7-[4-(4-fluorophenyl)-5-(methoxymethyl)-2,6-bis(propan-2-yl)pyridin-3-yl]-3,5-dihydroxyhept-6-enoic acid]
  proliferation of SMCs: inhibits the proliferation of SMCs
